Laboratory results published in patent publication US20190142881A1, “BACTERIOPHAGE COMPOSITIONS AND USES THEREOF” (priority 2016, published 2019).
In brackets after ≈: the same amount, converted by molar mass. Where two headings read alike, the source gives them in different places.

Tests used:
[1] = tested on: 72-hour-old P. aeruginosa biofilms; test: Biofilm elimination assays on prosthetic materials; conditions: single agent (antibiotics at 2×MIC)
[2] = tested on: P. aeruginosa isolated from the patient, susceptible to phage OMKO1; test: MIC by eTest strip, patient isolate before phage exposure; type: cell-based, Pseudomonas aeruginosa
Description: (§1) Bacterial strains were grown overnight at 37° C. as described above. A 200 μL sample of the culture was then spread onto an LB agar plate, and allowed to dry for 10 minutes, followed by application of an eTestStrip (BioMerieux) for a test antibiotic. […] Each strain was tested in triplicate for each antibiotic.
(§2) P. aeruginosa isolated from the patient was subjected to Deep Sequencing (Next Generation Sequencing) on the Illumina HiSeq 2000 platform to confirm species identity and presence of genes known to be associated with efflux-pump mechanisms for resistance to antibiotics. Furthermore, a trade-off between phage OMKO1 sensitivity and antibiotic susceptibility was confirmed as per methods disclosed elsewhere herein (FIG. 5). Phage OMKO1 was sequenced also on the HiSeq 2000 platform and found to be in the PhiKZ-like virus genus.

[3] = tested on: P. aeruginosa isolated from the patient, resistant to phage OMKO1; test: MIC by eTest strip, patient isolate after evolved resistance to phage OMKO1; type: cell-based, Pseudomonas aeruginosa
Description: (§3) Phage OMKO1 was amplified on P. aeruginosa in liquid culture in conditions identical to the Serial passage assays. Following 12 hours of amplification, 100 μl of culture was plated on LB agar and incubated for 12 hours. Individual colony-forming units (CFUs) were then collected, and verified to be phage resistant by classic ‘spot tests’ (i.e., 10^7 PFU of phage OMKO1 was pipetted onto a lawn of each bacterial isolate to test whether the phage was capable of visibly clearing the lawn [indicating bacterial sensitivity to phage] versus incapable of clearing the lawn [indicating bacterial resistance to phage]).
as §1, §2

strain PA01 ΔoprM = test: Minimum inhibitory concentration (eTest strip) on knockout PA01 ΔoprM; type: cell-based; conditions: Pseudomonas aeruginosa
Description: as §1
(§4) The effects of phage resistance on sensitivity to the four drugs was tested in replicated assays with PA01 and PA14, as well as with three environmental strains (PAN, 1607, 1845) and three clinical isolates (PAPS, PASk, PADFU). In these assays, the phage-OMKO1 resistant strain was either a knockout mutant (ΔoprM derived from PA01), or an independently derived spontaneous mutant of the associated parental strain.

[4] = tested on: environmental and clinical P. aeruginosa strains; test: MIC trade-off assay, phage-resistant mutants of environmental and clinical strains; type: cell-based, Pseudomonas aeruginosa; conditions: majority of outcomes showing statistical significance
[5] = tested on: strain ΔmexR (derived from PA01); test: Minimum inhibitory concentration (eTest strip) on control knockout ΔmexR; type: cell-based; conditions: Pseudomonas aeruginosa, average ± SD, phage-sensitive, over-expresses Mex systems
Description: as §1
As a control for transposon insertion, strain ΔmexR, which was also derived from PA01, was examined. mexR, the repressor of MexAB-OprM and MexXY-OprM operons should not negatively alter phage sensitivity.

[6] = tested on: environmental isolates (PAN, 1607, 1845); test: MIC trade-off assay, phage-resistant mutants of environmental isolates; type: cell-based, Pseudomonas aeruginosa; conditions: phage-resistant mutant versus parental strain
Description: as §3, §1, §4

[7] = Dacron sections, 24 h treatment, regrowth OD600
[8] = Pseudomonas aeruginosa, read-out: MIC

Row | Molecule | elimination of 72-hour biofilms [1, 7] | elimination of 72-hour biofilms ([1]; Gore-Tex sections) | elimination of 72-hour biofilms ([1]; felt pieces) | elimination of 72-hour biofilms ([1]; polypropylene suture) | MIC [2, 8] [µg/mL] | MIC ([3]; Pseudomonas aeruginosa) [µg/mL] | MIC (strain PA01 ΔoprM) [µg/mL] | change in drug sensitivity on phage resistance [4] | MIC [5] [µg/mL] | change in antibiotic sensitivity on resistance to phage OMKO1 [6] | MIC [2] [µg/mL] | MIC ([3]; eTest strip, after evolved resistance to phage OMKO1) [µg/mL]
1 | CC(C)(O/N=C(\C(=O)N[C@@H]1C(=O)N2C(C(=O)[O-])=C(C[n+]3ccccc3)CS[C@H]12)c1csc(N)n1)C(=O)O [CAZ, Ceftazidime] | Neither ciprofloxacin nor ceftazidime at 2×MIC was sufficient to eliminate 72 hour biofilms | unable to remove 72-hour biofilms | neither antibiotic alone significantly removed 72-hour biofilms | not by antibiotics at 2×MIC | 1.67 (≈ 3.05 µM) | 0.35 (≈ 0.64 µM) | 0.21 ± 0.144 (≈ 0.384 µM) | greater drug sensitivity | 1.33 ± 0.035 (≈ 2.44 µM) | – | – | –
2 | O=C(O)c1cn(C2CC2)c2cc(N3CCNCC3)c(F)cc2c1=O [CIP, Ciprofloxacin] | Neither ciprofloxacin nor ceftazidime at 2×MIC was sufficient to eliminate 72 hour biofilms | unable to remove 72-hour biofilms | neither antibiotic alone significantly removed 72-hour biofilms | not by antibiotics at 2×MIC | 1.17 (≈ 3.54 µM) | 0.014 (≈ 0.0423 µM) | 0.016 (≈ 0.0483 µM) | – | 32 (≈ 96.6 µM) | – | – | –
3 | CC[C@H]1OC(=O)[C@H](C)[C@@H](O[C@H]2C[C@@](C)(OC)[C@@H](O)[C@H](C)O2)[C@H](C)[C@@H](O[C@@H]2O[C@H](C)C[C@H](N(C)C)[C@H]2O)[C@](C)(O)C[C@@H](C)C(=O)[C@H](C)[C@@H](O)[C@]1(C)O [EM, Erythromycin] | – | – | – | – | – | – | 4.67 (≈ 6.36 µM) | – | 256 ± 0.577 (≈ 349 µM) | increased sensitivity | – | –
4 | CN(C)[C@@H]1C(O)=C(C(N)=O)C(=O)[C@@]2(O)C(O)=C3C(=O)c4c(O)cccc4[C@@](C)(O)[C@H]3C[C@@H]12 [TET, Tetracycline] | – | – | – | – | – | – | 2 (≈ 4.5 µM) | – | 256 (≈ 576 µM) | – | – | –
5 | NC[C@H]1O[C@H](O[C@H]2[C@H](O)[C@@H](O[C@H]3O[C@H](CO)[C@@H](O)[C@H](N)[C@H]3O)[C@H](N)C[C@@H]2N)[C@H](N)C[C@@H]1O [tobramycin] | – | – | – | – | 11.3 (≈ 24.2 µM) | 3.67 (≈ 7.84 µM) | – | – | – | – | – | –
6 | gentamicin | – | – | – | – | – | – | – | – | – | – | 3.7 | 0.833
